Measurements as given in patent US7402559B2, “Composition and method of treatment for urogenital conditions” (MSH Pharma, Incorporated, priority 1999, dated 2008).

Legend:
[1] = relative to L-form tripeptide alpha-MSH (11-13); cited from earlier work
[2] = tested on: C. albicans; assay: C. albicans colony formation (CFU viability); assay type: cell-based, Candida albicans; conditions: for C. albicans viability / effectiveness against C. albicans compared with fluconazole: FIG. 4; for ability of C albicans to form colonies: FIG. 3, 10^−12 to 10^−4 M, p<0.01 vs. control; for effectiveness against C. albicans compared with fluconazole: 10^−6 to 10^−4 M, same molar concentration as fluconazole
Method: Clinical isolates of C. albicans were obtained from the collection of the Department of Microbiology, Ospedale Maggiore di Milano. Cultures of C. albicans were maintained on Sabouraud's agar slants and periodically transferred to Sabouraud's agar plates and incubated for 48 hours at 28° C. To prepare stationary growth-phase yeast, a colony was taken from the agar plate, transferred into 30 ml of Sabouraud-dextrose broth, and incubated for 72 hours at 32° C. Cells were centrifuged at 1000× g for ten minutes, and the pellet was washed twice with distilled water. Cells were counted and suspended in Hank's balanced salt solution (“HBSS”) to the desired concentration.
Cells were then washed in cold distilled water and diluted with HBSS to a concentration of 100 organisms/ml. One-milliliter aliquots were then dispensed on blood agar plates and incubated for 48 hours at 37° C. The organism's viability was estimated from the number of colonies formed.
[…] The effects of forskolin and ddAdo on the ability of C. albicans to form colonies were determined according to the procedures described in Example II.

[3] = tested on: C. albicans; assay: Neutrophil killing of C. albicans; assay type: cell-based, human neutrophils; Candida albicans; conditions: FIG. 6; 10^−12 to 10^−4 M; p<0.01
Method: Venous blood (20 ml) from healthy volunteers was anticoagulated with heparin. Neutrophils were then isolated using dextran sedimentation and centrifugation with Ficoll-Hypaque (Sigma Chemical Co., St. Louis, Mo., USA). Erythrocytes were lysed via hypotonic shock with the resulting neutrophils representing at least 97% of the cell suspension. Cell viability, estimated by trypan blue exclusion, was greater than 98%. Neutrophils were resuspended in HBSS for the experiments. […] After incubation, the culture tubes were placed on ice to stop growth, and extracellular organisms were washed twice with centrifugation at 1000-× g at 4° C. A 2.5% sodium deoxycholate solution was added to the suspension, and the tubes were shaken for five minutes. Cold distilled water was then added to obtain a suspension of 10^6 cells/ml. Two 1/100 serial dilutions in HBSS were made to obtain a final suspension of 100 cells/ml. One-milliliter aliquots were then dispensed on blood agar plates and incubated for 48 hours at 37° C. Colony forming units were counted at the end of the incubation period with experiments running in triplicate and repeated using blood from five different donors.

[4] = tested on: S. aureus (ATCC 29213); assay: S. aureus colony formation (viability); assay type: cell-based, Staphylococcus aureus; conditions: FIG. 1; significant at peptide concentrations of 10^−12 to 10^−4 M; 2 h at 37° C.
Method: (§1) Cultures of S. aureus (ATCC 29213) were obtained from the collection of the Department of Microbiology, Ospedale Maggiore di Milano. […] Cells were then washed in cold distilled water and diluted with HBSS to a concentration of 100 organisms/ml. One-milliliter aliquots were dispensed on blood agar plates and incubated for 24 hours at 37° C. Viability of the microorganisms was estimated from the colonies formed. In another set of experiments, 500 units of urokinase, a S. aureus growth enhancer, were also incubated with the bacteria (10^5/100 ml ) for four hours at 37° C. in a shaking water bath together with the peptides.

[5] = tested on: NF-κB
Method: Cells were washed once with cold PBS, and twice with buffer A (10 mM Hepes pH 7.9, 1.5 mM MgCl2, 10 mM KCl, 0.5 mM PMSF and 0.5 mM DTT), centrifuged, and incubated for ten minutes on ice in buffer A plus 0.1% NP-40. Afterwards, the supernatants were removed, and the nuclear pellets were resuspended in 15 μl of buffer C (20 mM Hepes pH 7.9, 1.5 mM MgCl2, 0.42 M KCl, 0.2 mM EDTA, 25% glycerol, 0.5 mM PMSF, and 0.5 mM DTT), incubated for 15 minutes on ice, mixed, and then centrifuged. The supernatants were diluted with 75 μl of modified buffer D (20 mM Hepes, pH 7.9, 0.05 mM KCl, 0.2 mM EDTA, 20% glycerol, 0.5 mM PMSF, and 0.5 mM DTT) and stored at −80° C. […] Each oligonucleotide was annealed to its complementary strand and end-labeled with ^32P-γ-ATP using polynucleotide kinase. For the determination of specific bands, nuclear extracts were first incubated with 100 fold excess unlabeled probe for five minutes, before incubation with a labeled probe. […] The gels were dried and autoradiographed.

[6] = tested on: S. aureus; assay: Urokinase induced growth of S. aureus; assay type: cell-based, Staphylococcus aureus; conditions: FIG. 2; 10^−6 M peptide; 500 units urokinase, 4 h
Method: as §1

[7] = tested on: HIV-1 RNA; conditions: FIG. 12; PMA stimulated U1 cells
[8] = tested on: HIV-1; conditions: FIG. 11; 10^−5 M
Text: (§2) The chronically HIV-1 infected promonocytic U1 cell line is an in vitro model of latent HIV infection in monocytes. These cells carry two integrated proviral copies of HIV, and constitutive expression of HIV is very low. Viral replication, however, as measured by RNA transcription, p24 antigen, or reverse transcriptase release, can be activated with different stimuli such as TNF-α, IL-6, IL-10, PMA or crowding of cells.
(§3) Crowding was achieved by seeding U1 cells at a density of 2×10^5/ml and maintaining them in culture at 37° C. in 5% CO2 without changing media for seven days. Cultures activated with cytokines or PMA were maintained for only 48 hours. Supernatants were then removed by centrifugation and assayed for p24 antigen using commercially available ELISA kits from Cellular Products, Inc. in Buffalo, N.Y., USA. Reverse transcriptase releases were also measured using a commercially available kit, ELISA Retrosys RT assay from Innovagen, Lund, Sweden.

[9] = tested on: C. albicans; assay: cAMP content in permeabilized C. albicans (enzyme immunoassay); assay type: cell-based, Candida albicans; conditions: FIG. 7; 10^−6 M, three minutes
Method: The reactions were stopped after three minutes by the addition of ice cold ethanol. cAMP levels were measured in duplicate using a commercial enzyme immunoassay kit (Amersham, United Kingdom) after extraction via the liquid-phase method according to the manufacturer's instructions.

[10] = relative to parent peptide or to the 11-13 sequence; cited from earlier work
[11] = tested on: C. albicans; assay: C. albicans germ tube formation induced by horse serum; assay type: cell-based, Candida albicans; conditions: 10^−6 M, 60 minutes at 37° C., germ tubes induced by horse serum
Method: C. albicans from stationary phase cultures were washed twice with distilled water and suspended in HBSS to a final concentration of 2×10^6/ml. Hyphal growth was induced by addition of 10% inactivated horse serum (GIBCO/BRL, Paisley, Great Britain) to yeast incubated for 45 minutes at 37° C. with continuous shaking. […] The percentage of filamentous cells was evaluated under a light microscope with the aid of a hemocytometer. Experiments were run in triplicate and at least 200 cells were scored. Photomicrographs were taken with a MC100 camera attached to an Axioskop Zeiss microscope.

[12] = tested on: HIV-1; conditions: FIG. 10; broad range of concentrations; TNF-α 10 ng/ml
Text: as §2
Pilot experiments were first performed to determine optimal cell density, stimuli concentration, and kinetics of HIV-1 p24 antigen production using these culture conditions. Before use, cells were washed three times with HBSS to remove extracellular viruses.
as §3

MEHFRWG [alpha-MSH sequence (4-10)]
anti-inflammatory activity / general potency [1]: little antipyretic and anti-inflammatory activity

Ac-[D-K11]-alpha-MSH 11-13-NH2 [reference compound]
anti-inflammatory activity / general potency [1]: same general potency

ACTH fragment (18-39): ACTH fragment (18-39) (CLIP) (RPVKVYPAGEDDEASEAFPLEF; Designed polypeptide with anti-inflammatory, anti-microbial, anti-fungal, and anti-viral properties.) [reference compound]
C. albicans viability [2]: did not reduce

Lysine-Proline-Valine [alpha-MSH (11-13)]
neutrophil killing of C. albicans [3]: enhanced | S. aureus colony formation [4]: inhibited | NF-κB activation, TNF-α stimulated cells [5]: significantly reduced | NF-κB activation, resting cells [5]: did not alter | ability of C albicans to form colonies [2]: greatly reduced | effectiveness against C. albicans compared with fluconazole [2]: most effective | growth of C. albicans relative to the control group ([2]; FIG. 8, p<0.01): significantly inhibited | growth enhancing effect of urokinase on S. aureus [6]: significantly countered | transcription of spliced and unspliced HIV-1 RNA [7]: inhibited | reverse transcriptase release from U1 cells induced by IL-6, IL-10, PMA and in crowding condition [8]: inhibited | cAMP content in C. albicans [9]: enhanced

[Nle^4, D-Phe^7]-alpha-MSH
antipyretic potency [10]: approximately ten times more potent

ACTH (1-39): adrenocorticotropic hormone (1-39) (SYSMEHFRWGKPVGKKRRPVKVYPAGEDDEASEAFPLEF; Designed polypeptide with anti-inflammatory, anti-microbial, anti-fungal, and anti-viral properties/naturally occurring peptide.; listed as Homo sapiens) [reference compound]
C. albicans viability [2]: did not reduce

dideoxyadenosine [ddAdo, reference compound]
effect of ddAdo on alpha-MSH (1-13) and (11-13) inhibition of C. albicans growth ([2]; FIG. 9, ddAdo 25, 50, and 100×10^−5 M for two hours, then peptides two hours): reverse the effect

SYSMEHFRWGKPV [alpha-MSH (1-13)]
reduction in the number of filamentous cells [11]: 28-32% | p24 antigen release from TNF-α stimulated U1 cells [12]: significantly inhibited | neutrophil killing of C. albicans [3]: enhanced | S. aureus colony formation [4]: inhibited | ability of C albicans to form colonies [2]: greatly reduced | effectiveness against C. albicans compared with fluconazole [2]: most effective | growth enhancing effect of urokinase on S. aureus [6]: significantly countered | cAMP content in C. albicans [9]: enhanced

9-13 sequence: alpha-MSH 9-13 fragment (WGKPV; Designed polypeptide with anti-inflammatory, anti-microbial, anti-fungal, and anti-viral properties.)
antipyretic potency [10]: almost devoid of activity

8-13 sequence: alpha-MSH 8-13 fragment (RWGKPV; Designed polypeptide with anti-inflammatory, anti-microbial, anti-fungal, and anti-viral properties.)
antipyretic potency [10]: greater than that of the 11-13 sequence

10-13 sequence: alpha-MSH (11-13) with glycine added to form the 10-13 sequence (GKPV; Designed pollypeptide with anti-inflammatory, anti-microbial, anti-fungal, and anti-viral properties.)
antipyretic potency [10]: slightly decreased potency

HFRWGKPV (Ac-HFRWGKPV-NH2) [alpha-MSH (6-13)]
reduction in the number of filamentous cells [11]: approximately 50% | effectiveness against C. albicans compared with fluconazole [2]: most effective
